Molecular target: T1, recombinant human ACC2 (Homo sapiens, UniProt O00763)
T1 construct: a cDNA encoding human ACC2 (27-2458) was cloned from human kidney cDNA library (Clontech); His-tag (N); made in house; host or cells: Sf-9 insect cells (Bac-to-Bac baculovirus)
Experiment: Measurement of inhibitory activity on human ACC2 (MALDI-TOF MS, acetyl CoA to malonyl CoA conversion)
Assay type: biochemical
Conditions: not given

T1 sequence (O00763 27-2458): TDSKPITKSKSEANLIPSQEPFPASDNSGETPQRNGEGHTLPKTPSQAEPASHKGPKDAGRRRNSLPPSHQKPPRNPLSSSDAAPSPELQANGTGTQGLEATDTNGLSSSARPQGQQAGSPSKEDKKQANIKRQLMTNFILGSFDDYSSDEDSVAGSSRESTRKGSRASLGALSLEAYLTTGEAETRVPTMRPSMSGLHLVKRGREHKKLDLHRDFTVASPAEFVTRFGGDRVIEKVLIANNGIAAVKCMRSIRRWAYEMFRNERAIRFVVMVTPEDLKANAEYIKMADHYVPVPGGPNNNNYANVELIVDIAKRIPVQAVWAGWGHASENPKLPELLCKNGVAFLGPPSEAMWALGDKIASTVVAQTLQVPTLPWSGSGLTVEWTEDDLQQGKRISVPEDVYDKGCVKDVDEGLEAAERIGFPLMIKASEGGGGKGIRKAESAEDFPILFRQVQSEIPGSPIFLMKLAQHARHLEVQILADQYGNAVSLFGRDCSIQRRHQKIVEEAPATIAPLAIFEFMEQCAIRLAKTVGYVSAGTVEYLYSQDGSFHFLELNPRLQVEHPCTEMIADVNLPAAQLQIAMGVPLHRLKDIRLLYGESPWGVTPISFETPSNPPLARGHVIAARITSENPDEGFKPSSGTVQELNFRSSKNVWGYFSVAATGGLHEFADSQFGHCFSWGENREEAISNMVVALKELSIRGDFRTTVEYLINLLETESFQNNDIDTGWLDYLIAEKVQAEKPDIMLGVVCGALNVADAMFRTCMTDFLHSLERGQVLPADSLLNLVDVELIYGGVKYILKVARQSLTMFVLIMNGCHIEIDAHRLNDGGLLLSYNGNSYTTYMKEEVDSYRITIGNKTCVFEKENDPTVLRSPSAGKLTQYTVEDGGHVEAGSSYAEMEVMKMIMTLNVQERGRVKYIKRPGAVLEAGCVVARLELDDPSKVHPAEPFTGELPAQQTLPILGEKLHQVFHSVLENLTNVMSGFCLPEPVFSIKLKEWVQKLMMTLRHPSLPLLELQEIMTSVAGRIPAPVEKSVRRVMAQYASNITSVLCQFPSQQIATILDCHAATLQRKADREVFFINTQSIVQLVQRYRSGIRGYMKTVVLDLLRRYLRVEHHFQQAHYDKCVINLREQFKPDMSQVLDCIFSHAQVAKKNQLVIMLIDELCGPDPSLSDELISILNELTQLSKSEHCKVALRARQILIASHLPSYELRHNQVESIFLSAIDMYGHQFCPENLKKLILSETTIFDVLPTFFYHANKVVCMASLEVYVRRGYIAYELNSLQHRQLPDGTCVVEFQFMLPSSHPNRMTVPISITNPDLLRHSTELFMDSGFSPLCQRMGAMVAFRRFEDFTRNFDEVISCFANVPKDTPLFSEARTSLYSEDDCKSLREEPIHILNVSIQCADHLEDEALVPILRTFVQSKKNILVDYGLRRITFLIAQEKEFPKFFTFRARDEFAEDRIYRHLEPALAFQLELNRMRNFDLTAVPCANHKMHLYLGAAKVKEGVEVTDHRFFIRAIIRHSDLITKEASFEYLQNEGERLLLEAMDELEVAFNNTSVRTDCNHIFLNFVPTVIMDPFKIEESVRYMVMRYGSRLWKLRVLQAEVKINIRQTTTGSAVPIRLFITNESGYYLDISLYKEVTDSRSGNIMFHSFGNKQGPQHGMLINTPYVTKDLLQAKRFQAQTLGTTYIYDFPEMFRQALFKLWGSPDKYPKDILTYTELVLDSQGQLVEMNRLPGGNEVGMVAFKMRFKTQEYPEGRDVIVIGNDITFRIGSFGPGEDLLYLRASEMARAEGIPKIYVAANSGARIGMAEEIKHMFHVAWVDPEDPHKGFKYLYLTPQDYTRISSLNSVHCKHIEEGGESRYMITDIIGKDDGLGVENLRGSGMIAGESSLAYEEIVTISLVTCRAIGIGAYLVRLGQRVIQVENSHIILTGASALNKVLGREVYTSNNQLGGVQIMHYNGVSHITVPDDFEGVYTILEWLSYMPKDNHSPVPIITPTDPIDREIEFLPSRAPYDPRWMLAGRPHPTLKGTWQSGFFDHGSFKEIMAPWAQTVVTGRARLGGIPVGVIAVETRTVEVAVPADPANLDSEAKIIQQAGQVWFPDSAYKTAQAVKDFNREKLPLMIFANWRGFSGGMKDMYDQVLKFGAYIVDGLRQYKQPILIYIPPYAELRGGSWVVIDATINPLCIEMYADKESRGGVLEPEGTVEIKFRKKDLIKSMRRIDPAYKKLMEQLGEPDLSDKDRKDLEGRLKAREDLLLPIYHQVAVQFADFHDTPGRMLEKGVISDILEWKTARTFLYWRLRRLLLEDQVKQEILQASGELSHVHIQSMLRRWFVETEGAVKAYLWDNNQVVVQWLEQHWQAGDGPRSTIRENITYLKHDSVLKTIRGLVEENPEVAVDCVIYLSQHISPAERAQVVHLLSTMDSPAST

Compound	IC50 [nM]
CC(=O)N[C@@H](C)/C=C/c1cnc(Oc2ccc(C(C)(C)C(F)(F)F)cc2Cl)nc1 [Compound I-427]	200
CC(=O)N[C@@H](C)/C=C/c1cnc(Oc2ccc(C(C)(C)C(F)(F)F)cc2Cl)cn1 [Compound I-428]	170
CC(=O)N[C@@H](C)/C=C/c1ccc(Oc2ccc3c(c2)CCO3)nc1 [Compound I-429]	50
CCOc1ccc(Oc2ncc(/C=C/[C@H](C)NC(C)=O)cc2N)c(Cl)c1 [Compound I-430]	2700

Same assay, conditions: inhibition activity on human ACC2, Table 84; read-out: IC50

Compound	IC50 [nM]
CCC(=O)c1ccc(Oc2ncc(/C=C/[C@H](C)NC(C)=O)s2)c(Cl)c1 [Compound I-431]	85
CCCc1ccc(Oc2ncc(/C=C/[C@H](C)NC(C)=O)cn2)c(Cl)c1 [Compound I-432]	520
CCCc1ccc(Oc2cnc(/C=C/[C@H](C)NC(C)=O)cn2)c(Cl)c1 [Compound I-433]	49
CC(=O)N[C@@H](C)/C=C/c1ccc(Oc2ccc(C3(C)CC3(F)F)cc2Cl)nc1 (stereo partly drawn) [Compound I-434]	100
CC(=O)N[C@@H](C)/C=C/c1ccc(Oc2ccc3c(c2Cl)CCC3)nc1 [Compound I-435]	24
CCC(CC)c1ccc(Oc2ccc(/C=C/[C@H](C)NC(C)=O)cn2)c(Cl)c1 [Compound I-436]	58
CCCc1ccc(Oc2ccc(/C=C/[C@H](C)NC(C)=O)cn2)c(C)c1 [Compound I-437]	33
CCCc1ccc(Oc2ccc(/C=C/[C@H](C)NC(C)=O)cn2)c(C(F)(F)F)c1 [Compound I-439]	82
CCCc1ccc(Oc2ccc(/C=C/[C@H](C)NC(C)=O)cn2)c(Cl)c1Cl [Compound I-440]	20
CCOC(=O)c1cnc(Oc2ccc(Oc3ccc(/C=C/[C@H](C)NC(C)=O)cn3)c(Cl)c2)s1 [Compound I-441]	690
CCOc1ccc(Oc2ncc(/C=C/[C@H](C)NC(C)=O)cc2C)c(Cl)c1 [Compound I-442]	65
CC(=O)N[C@@H](C)/C=C/c1cnc(Oc2ccc(OCC3CC3)cc2Cl)c(C)c1 [Compound I-443]	22
CC(=O)N[C@@H](C)/C=C/c1ccc(Oc2ccc3c(c2)CCCO3)nc1 [Compound I-444]	42
CC(=O)N[C@@H](C)/C=C/c1cnc(Oc2ccc(OCC3CC3)cc2Cl)c(C#N)c1 [Compound I-445]	260
CCOc1ccc(Oc2ncc(/C=C/[C@H](C)NC(C)=O)cc2F)c(Cl)c1 [Compound I-446]	73
CC(=O)N[C@@H](C)/C=C/c1cnc(Oc2ccc(OCC3CC3)cc2Cl)c(F)c1 [Compound I-447]	25
CC(=O)N[C@@H](C)/C=C/c1ccc(Oc2ccc3c(c2)OCC3)nc1 [Compound I-448]	180
CC(=O)N[C@@H](C)/C=C/c1ccc(Oc2ccc3c(c2)OCCC3)nc1 [Compound I-449]	130
CC(=O)N[C@@H](C)/C=C/c1ccc(Oc2ccc(OCc3ccccc3)cc2Cl)nc1 [Compound I-450]	60
CC(=O)N[C@@H](C)/C=C/c1ccc(Oc2ccc(Oc3ccc([N+](=O)[O-])cc3)cc2Cl)nc1 [Compound I-451]	25
CC(=O)N[C@@H](C)/C=C/c1ccc(Oc2ccc(Oc3ccc(C#N)cc3)cc2Cl)nc1 [Compound I-452]	42
CC(=O)N[C@@H](C)/C=C/c1ccc(Oc2ccc(Oc3cncs3)cc2Cl)nc1 [Compound I-453]	730
CC(=O)N[C@@H](C)/C=C/c1ccc(Oc2ccc(-c3ncc(F)cn3)cc2Cl)nc1 [Compound I-454]	37
CC(=O)N[C@@H](C)/C=C/c1ccc(Oc2ccc3nc(C)sc3c2Cl)nc1 [Compound I-455]	30
CC(=O)N[C@@H](C)/C=C/c1ccc(Oc2ccc3c(C)noc3c2)nc1 [Compound I-456]	450
CC(=O)N[C@@H](C)/C=C/c1ccc(Oc2cc(C)c(C)cc2Cl)nc1 [Compound I-457]	310
CCCc1cc(Cl)c(Oc2ccc(/C=C/[C@H](C)NC(C)=O)cn2)cc1Cl [Compound I-458]	26

Compound	IC50 [nM]
CCCc1ccc(Oc2ccc(/C=C(\F)[C@H](C)NC(C)=O)cn2)c(Cl)c1 [Compound I-459]	12
C/C=C/c1ccc(Oc2ccc(/C=C/[C@H](C)NC(C)=O)cn2)c(Cl)c1 [Compound I-460]	130
CC(=O)N[C@@H](C)/C=C/c1ccc(Oc2ccc3nc(C)oc3c2)nc1 [Compound I-461]	1500
CC(=O)N[C@@H](C)/C=C/c1ccc(Oc2ccc(Oc3ccccc3)cc2Cl)nc1 [Compound I-462]	19
CC(=O)N[C@@H](C)/C=C/c1ccc(Oc2ccc(Oc3ccccn3)cc2Cl)nc1 [Compound I-463]	68
CC(=O)N[C@@H](C)/C=C/c1ccc(Oc2ccc(Oc3cccnc3)cc2Cl)nc1 [Compound I-464]	120
CC(=O)N[C@@H](C)/C=C/c1ccc(Oc2ccc(Oc3ccncc3)cc2Cl)nc1 [Compound I-465]	120
CC(=O)N[C@@H](C)/C=C/c1ccc(Oc2ccc3c(c2Cl)CCC3(F)F)nc1 [Compound I-466]	16
CCCC(F)(CC)c1ccc(Oc2ccc(/C=C/[C@H](C)NC(C)=O)cn2)c(Cl)c1 (stereo partly drawn) [Compound I-467]	43
CC(=O)N[C@@H](C)/C=C/c1ccc(Oc2ccc3c(c2)CCN(CC2CC2)C3=O)nc1 [Compound I-468]	90
CCCc1cccc(Oc2ccc(/C=C/[C@H](C)NC(C)=O)cn2)c1Cl [Compound I-469]	36
CCCc1cc(Cl)cc(Oc2ccc(/C=C/[C@H](C)NC(C)=O)cn2)c1 [Compound I-470]	230
CCOc1ccc(Oc2ccc(/C=C(\F)[C@H](C)NC(C)=O)cn2)c(Cl)c1 [Compound I-471]	16
CC(=O)N[C@@H](C)/C=C/c1ccc(Oc2ccc3c(c2)OCCO3)nc1 [Compound I-472]	37
CCC(F)(F)c1ccc(Oc2cnc(/C=C/[C@H](C)NC(C)=O)cn2)c(Cl)c1 [Compound I-473]	39
CCc1nc2ccc(Oc3ccc(/C=C/[C@H](C)NC(C)=O)cn3)c(Cl)c2s1 [Compound I-474]	9.7
CCCc1ccc(Cl)c(Oc2ccc(/C=C/[C@H](C)NC(C)=O)cn2)c1 [Compound I-475]	170
C/C=C(\CC)c1ccc(Oc2ccc(/C=C/[C@H](C)NC(C)=O)cn2)c(Cl)c1 [Compound I-476]	240
CC(=O)N[C@@H](C)/C=C/c1ccc(Oc2ccc3nc(C(C)C)sc3c2Cl)nc1 [Compound I-477]	6.9
CC(=O)N[C@@H](C)/C=C/c1ccc(Oc2cc3sc(C)nc3cc2Cl)nc1 [Compound I-478]	550
CC(=O)N[C@@H](C)/C=C/c1ccc(Oc2cc3c(cc2Cl)OCC3)nc1 [Compound I-479]	440
CCN1CCc2cc(Oc3ccc(/C=C/[C@H](C)NC(C)=O)cn3)ccc2C1=O [Compound I-480]	520
CC(=O)N[C@@H](C)/C=C/c1ccc(Oc2ccc3nc(C(F)(F)F)sc3c2)nc1 [Compound I-481]	13
CC(=O)N[C@@H](C)/C=C/c1ccc(Oc2ccc3c(c2)OC(F)(F)C(F)(F)O3)nc1 [Compound I-482]	8.1
CC(=O)N[C@@H](C)/C=C/c1ccc(Oc2ccc3c(c2)OC(F)(F)O3)nc1 [Compound I-483]	52
CSc1ncc(Oc2ccc(/C=C/[C@H](C)NC(C)=O)cn2)cn1 [Compound I-484]	160

Reference: patent US20150246938A1, “NOVEL OLEFIN DERIVATIVE” (SHIONOGI & CO., LTD., priority 2011, published 2015)
